According to publication PMC11401861, “Assessment of the in vitro anti-diabetic activity with molecular dynamic simulations of limonoids isolated from Adalia lemon peels” (Scientific Reports, 2024):
≈ marks a conversion by molar mass, not a printed value.

Columns and labels:
[1] = ABTS radical scavenging assay; conditions: for IC50 against ABTS radical: Fig. 2a
Protocol: (§1) All in vitro biological activities of the limonoids-rich extract and the isolated compounds were assayed in triplicate at three different concentrations (50, 100, and 200 µg/mL).
(§2) The ABTS scavenging capacities of the samples were compared with that of ascorbic acid. The percent inhibition of the ABTS radical was calculated. The IC50 of each tested sample was determined by plotting a curve using a series of sample concentrations against the percent of ABTS inhibition.

[2] = DPPH radical scavenging activity; conditions: for IC50 against DPPH radical: Fig. 2a
Protocol: as §1
The 1,1-Diphenyl-2-picryl-hydrazyl (DPPH) radical scavenging activity was evaluated using the method described by Rahman et al.[32]. Ascorbic acid was used as a positive control at the same concentrations. The inhibition percentage of the DPPH free radical was calculated. The median inhibitory concentration (IC50) of each tested sample was determined by plotting a curve using a series of sample concentrations against the percentage of DPPH inhibition.

[3] = Nitric oxide (NO) radical scavenging activity (Griess Illosvory reagent); conditions: for IC50 against NO radical: Fig. 2a
Protocol: as §1
as §2, with “The nitric oxide (NO) radical scavenging activity was estimated by the reaction with Griess Illosvory reagent based on the method proposed by Chakraborthy[34]. The NO” for “The ABTS”, “the NO” for “the ABTS”, “of NO” for “of ABTS”

α-glucosidase [4] = experiment: α-Glucosidase enzyme inhibition assay; format: biochemical; conditions: for IC50 against α-glucosidase: Fig. 2b
Protocol: as §1
(§3) The IC50 of each tested sample was determined by plotting a curve using a series of sample concentrations against the percent of enzyme inhibition.

α-amylase [5] = experiment: Native electrophoretic α-amylase isoenzyme pattern (PAGE); format: biochemical; conditions: standard enzyme treated with 100 µg/mL
Protocol: (§4) The relative mobility (Rf), band quantity (Qty) and band percent (B%) of the electrophoretically detected isoenzyme types on the PAGE plate were determined using the Quantity One software program (version 4.6.2). The equation proposed by Nei and Li[39] was used to calculate the percentages of similarity index (SI%) and physiological difference (Diff%).

[6] = Iron reducing power (IRP), method of Oyaizu
α-glucosidase [7] = experiment: SDS-PAGE electrophoretic α-glucosidase pattern; format: biochemical; conditions: 100 µg/mL
Protocol: as §4

[8] = Total antioxidant capacity (TAC), method of Prieto et al.
Protocol: as §1
The method proposed by Prieto et al.[30] was used to determine the total antioxidant capacity (TAC) expressed as mg […] equivalent per gram weight, using ascorbic acid at the same concentrations as a standard.

α-amylase [9] = experiment: α-Amylase enzyme inhibition assay; format: biochemical; conditions: for IC50 against α-amylase: Fig. 2b
Protocol: as §1, §3

Q: Which “ABTS Inhibition (%)” value ([1]; sample concentration 50 µg/mL) does the source give for `CC(=O)O[C@H]1CC(=O)OC(C)(C)[C@@H]2CC(=O)[C@]3(C)[C@H](CC[C@@]4(C)[C@H](c5ccoc5)OC(=O)[C@H]5O[C@]543)[C@@]12C` [Cpd3, nomilin] here?
A: 7.75 ± 0.03%

Q: What about the “ABTS Inhibition (%)” value ([1]; sample concentration 100 µg/mL) of the same compound?
A: 13.79 ± 0.05%

Q: What about the “ABTS Inhibition (%)” value ([1]; sample concentration 200 µg/mL) of the same compound?
A: 24.55 ± 0.08%

Q: And the “DPPH Inhibition (%)” value ([2]; sample concentration 50 µg/mL)?
A: 11.22 ± 0.02%

Q: And the “DPPH Inhibition (%)” value ([2]; sample concentration 100 µg/mL)?
A: 19.96 ± 0.04%

Q: What about the “DPPH Inhibition (%)” value ([2]; sample concentration 200 µg/mL) of the same compound?
A: 35.53 ± 0.07%

Q: And the “NO Inhibition (%)” value ([3]; sample concentration 50 µg/mL)?
A: 6.07 ± 0.02%

Q: What about the “NO Inhibition (%)” value ([3]; sample concentration 100 µg/mL) of the same compound?
A: 10.80 ± 0.04%

Q: What about the “NO Inhibition (%)” value ([3]; sample concentration 200 µg/mL) of the same compound?
A: 19.22 ± 0.07%

Q: And the “α-Glucosidase Inhibition (%)” value (α-glucosidase [4]; sample concentration 50 µg/mL)?
A: 1.50 ± 0.03%

Q: And the “α-Glucosidase Inhibition (%)” value (α-glucosidase [4]; sample concentration 100 µg/mL)?
A: 2.67 ± 0.05%

Q: And the “α-Glucosidase Inhibition (%)” value (α-glucosidase [4]; sample concentration 200 µg/mL)?
A: 4.75 ± 0.08%

Q: What about the “Change in electrophoretic α-amylase isoenzyme pattern” value (α-amylase [5]) of the same compound?
A: no qualitative or quantitative variations

Q: And the “Diff% (physiological difference) of electrophoretic α-amylase pattern from the standard enzyme” value (α-amylase [5])?
A: 0.00%

Q: What about the “SI% (similarity index) of electrophoretic α-amylase pattern to the standard enzyme” value (α-amylase [5]) of the same compound?
A: 100.00%

Q: What about the IRP ([6]; sample concentration 50 µg/mL) of the same compound?
A: 7.75 ± 0.03 µg/mL

Q: And the IRP ([6]; sample concentration 100 µg/mL)?
A: 13.79 ± 0.05 µg/mL

Q: And the IRP ([6]; sample concentration 200 µg/mL)?
A: 24.55 ± 0.08 µg/mL

Q: And the “Diff% (decrease in the quantity of the identified α-glucosidase band)” value (α-glucosidase [7])?
A: 7.51%

Q: And the “Qty (band quantity) of the α-glucosidase band” value (α-glucosidase [7])?
A: 17.26

Q: What about the TAC ([8]; sample concentration 50 µg/mL) of the same compound?
A: 12.90 ± 0.03 mg gallic acid/g

Q: And the TAC ([8]; sample concentration 100 µg/mL)?
A: 22.96 ± 0.05 mg gallic acid/g

Q: And the TAC ([8]; sample concentration 200 µg/mL)?
A: 40.87 ± 0.08 mg gallic acid/g

Q: And the “α-Amylase Inhibition (%)” value (α-amylase [9]; sample concentration 50 µg/mL)?
A: 4.65 ± 0.03%

Q: And the “α-Amylase Inhibition (%)” value (α-amylase [9]; sample concentration 100 µg/mL)?
A: 8.27 ± 0.05%

Q: What about the “α-Amylase Inhibition (%)” value (α-amylase [9]; sample concentration 200 µg/mL) of the same compound?
A: 14.73 ± 0.08%

Q: Which “IC50 against ABTS radical” value [1] does the source give for `CC1(C)OC(=O)C=C[C@]2(C)[C@H]3CC[C@@](C)([C@@H](O[C@@H]4O[C@H](CO)[C@@H](O)[C@H](O)[C@H]4O)c4ccoc4)[C@@]4(O[C@@H]4C(=O)O)[C@]3(C)C(=O)C[C@@H]12` [Cpd4, obacunone 17-O-β-D-glucopyranoside] here?
A: 4.53 ± 0.02 µg/mL (≈ 7.14 µM)

Q: And the “ABTS Inhibition (%)” value ([1]; sample concentration 50 µg/mL)?
A: 22.03 ± 0.07%

Q: What about the “ABTS Inhibition (%)” value ([1]; sample concentration 100 µg/mL) of the same compound?
A: 39.20 ± 0.13%

Q: And the “ABTS Inhibition (%)” value ([1]; sample concentration 200 µg/mL)?
A: 69.78 ± 0.23%

Q: What about the “IC50 against DPPH radical” value [2] of the same compound?
A: 5.12 ± 0.02 µg/mL (≈ 8.07 µM)

Q: And the “DPPH Inhibition (%)” value ([2]; sample concentration 50 µg/mL)?
A: 23.63 ± 0.06%

Q: What about the “DPPH Inhibition (%)” value ([2]; sample concentration 100 µg/mL) of the same compound?
A: 42.06 ± 0.11%

Q: What about the “DPPH Inhibition (%)” value ([2]; sample concentration 200 µg/mL) of the same compound?
A: 74.87 ± 0.20%

Q: What about the “IC50 against NO radical” value [3] of the same compound?
A: 5.70 ± 0.03 µg/mL (≈ 8.98 µM)

Q: And the “NO Inhibition (%)” value ([3]; sample concentration 50 µg/mL)?
A: 18.48 ± 0.06%

Q: And the “NO Inhibition (%)” value ([3]; sample concentration 100 µg/mL)?
A: 32.90 ± 0.11%

Q: What about the “NO Inhibition (%)” value ([3]; sample concentration 200 µg/mL) of the same compound?
A: 58.55 ± 0.20%

Q: What about the “IC50 against α-glucosidase” value (α-glucosidase [4]) of the same compound?
A: 2.46 ± 0.02 µg/mL (≈ 3.88 µM)

Q: And the “α-Glucosidase Inhibition (%)” value (α-glucosidase [4]; sample concentration 50 µg/mL)?
A: 14.78 ± 0.07%

Q: And the “α-Glucosidase Inhibition (%)” value (α-glucosidase [4]; sample concentration 100 µg/mL)?
A: 26.30 ± 0.13%

Q: And the “α-Glucosidase Inhibition (%)” value (α-glucosidase [4]; sample concentration 200 µg/mL)?
A: 46.81 ± 0.23%

Q: What about the “Change in electrophoretic α-amylase isoenzyme pattern” value (α-amylase [5]) of the same compound?
A: severe abnormalities

Q: And the “Diff% (physiological difference) of electrophoretic α-amylase pattern from the standard enzyme” value (α-amylase [5])?
A: 100.00%

Q: And the “SI% (similarity index) of electrophoretic α-amylase pattern to the standard enzyme” value (α-amylase [5])?
A: 0.00%

Q: What about the IRP ([6]; sample concentration 50 µg/mL) of the same compound?
A: 22.03 ± 0.07 µg/mL

Q: What about the IRP ([6]; sample concentration 100 µg/mL) of the same compound?
A: 39.20 ± 0.13 µg/mL

Q: And the IRP ([6]; sample concentration 200 µg/mL)?
A: 69.78 ± 0.23 µg/mL

Q: And the “Diff% (decrease in the quantity of the identified α-glucosidase band)” value (α-glucosidase [7])?
A: 64.41%

Q: What about the “Qty (band quantity) of the α-glucosidase band” value (α-glucosidase [7]) of the same compound?
A: 6.64

Q: What about the TAC ([8]; sample concentration 50 µg/mL) of the same compound?
A: 27.18 ± 0.07 mg gallic acid/g

Q: And the TAC ([8]; sample concentration 100 µg/mL)?
A: 48.37 ± 0.13 mg gallic acid/g

Q: And the TAC ([8]; sample concentration 200 µg/mL)?
A: 86.10 ± 0.23 mg gallic acid/g

Q: What about the “IC50 against α-amylase” value (α-amylase [9]) of the same compound?
A: 3.61 ± 0.02 µg/mL (≈ 5.69 µM)

Q: What about the “α-Amylase Inhibition (%)” value (α-amylase [9]; sample concentration 50 µg/mL) of the same compound?
A: 18.93 ± 0.07%

Q: What about the “α-Amylase Inhibition (%)” value (α-amylase [9]; sample concentration 100 µg/mL) of the same compound?
A: 33.69 ± 0.13%

Q: And the “α-Amylase Inhibition (%)” value (α-amylase [9]; sample concentration 200 µg/mL)?
A: 59.96 ± 0.23%

Q: Which results are given for `CC1(C)OC2CC(=O)OCC23C1CC(=O)C1(C)C3CC[C@@](C)([C@@H](O[C@@H]2O[C@H](CO)[C@@H](O)[C@H](O)[C@H]2O)c2ccoc2)C12OC2C(=O)O` (stereo partly drawn) [Cpd5, limonin 17-O-β-D-glucopyranoside]?
A: IC50 against ABTS radical [1]: 4.48 ± 0.02 µg/mL (≈ 6.89 µM); ABTS Inhibition (%) ([1]; sample concentration 50 µg/mL): 22.30 ± 0.07%; ABTS Inhibition (%) ([1]; sample concentration 100 µg/mL): 39.69 ± 0.13%; ABTS Inhibition (%) ([1]; sample concentration 200 µg/mL): 70.65 ± 0.23%; IC50 against DPPH radical [2]: 5.07 ± 0.02 µg/mL (≈ 7.79 µM); DPPH Inhibition (%) ([2]; sample concentration 50 µg/mL): 23.87 ± 0.06%; DPPH Inhibition (%) ([2]; sample concentration 100 µg/mL): 42.48 ± 0.11%; DPPH Inhibition (%) ([2]; sample concentration 200 µg/mL): 75.62 ± 0.20%; IC50 against NO radical [3]: 5.62 ± 0.03 µg/mL (≈ 8.64 µM); NO Inhibition (%) ([3]; sample concentration 50 µg/mL): 18.72 ± 0.06%; NO Inhibition (%) ([3]; sample concentration 100 µg/mL): 33.32 ± 0.11%; NO Inhibition (%) ([3]; sample concentration 200 µg/mL): 59.30 ± 0.20%; IC50 against α-glucosidase (α-glucosidase [4]): 2.42 ± 0.02 µg/mL (≈ 3.72 µM); α-Glucosidase Inhibition (%) (α-glucosidase [4]; sample concentration 50 µg/mL): 15.05 ± 0.07%; α-Glucosidase Inhibition (%) (α-glucosidase [4]; sample concentration 100 µg/mL): 26.78 ± 0.13%; α-Glucosidase Inhibition (%) (α-glucosidase [4]; sample concentration 200 µg/mL): 47.67 ± 0.23%; Change in electrophoretic α-amylase isoenzyme pattern (α-amylase [5]): severe abnormalities; Diff% (physiological difference) of electrophoretic α-amylase pattern from the standard enzyme (α-amylase [5]): 100.00%; SI% (similarity index) of electrophoretic α-amylase pattern to the standard enzyme (α-amylase [5]): 0.00%; IRP ([6]; sample concentration 50 µg/mL): 22.30 ± 0.07 µg/mL; IRP ([6]; sample concentration 100 µg/mL): 39.69 ± 0.13 µg/mL; IRP ([6]; sample concentration 200 µg/mL): 70.65 ± 0.23 µg/mL; Diff% (decrease in the quantity of the identified α-glucosidase band) (α-glucosidase [7]): 69.27%; Qty (band quantity) of the α-glucosidase band (α-glucosidase [7]): 5.73; TAC ([8]; sample concentration 50 µg/mL): 27.45 ± 0.07 mg gallic acid/g; TAC ([8]; sample concentration 100 µg/mL): 48.86 ± 0.13 mg gallic acid/g; TAC ([8]; sample concentration 200 µg/mL): 86.96 ± 0.23 mg gallic acid/g; IC50 against α-amylase (α-amylase [9]): 3.56 ± 0.02 µg/mL (≈ 5.47 µM); α-Amylase Inhibition (%) (α-amylase [9]; sample concentration 50 µg/mL): 19.20 ± 0.07%; α-Amylase Inhibition (%) (α-amylase [9]; sample concentration 100 µg/mL): 34.17 ± 0.13%; α-Amylase Inhibition (%) (α-amylase [9]; sample concentration 200 µg/mL): 60.82 ± 0.23%
